Test results taken from patent publication US12691118B2, “Allosteric agonists and positive allosteric modulators of Glucagon-like peptide 1 receptor” (University of the Sciences, priority 2019, dated 2026).
“Also recorded” adds a separate entry of the source. Blank lines part the entries; values can stand above or below the molecule they belong to. Ends that are not written are not given here.

Experiments:
human GLP-1R = biological target: T1, human GLP-1R (Homo sapiens, UniProt P43220); assay: CRE luciferase reporter assay in HEK293 cells transiently expressing human GLP-1R; type: cell-based; details: for GLP-1R activity stimulated by GLP-1 in combination with compound vs GLP-1 alone: GLP-1 0.014 nM-145 nM
T1 construct: Flag (N); host or cells: HEK293 cells stably expressing CRE/CREB luciferase reporter (BPS Bioscience #60515)
Procedure: HEK293 cells stably expressing CRE/CREB Reporter (luciferase) were cultured in RPMI medium supplemented with 8% (v/v) fetal bovine serum, 2% (v/v) penicillin/streptomycin, and 100 μg/ml of Hygromycin B. Cells were maintained in an incubator at 37° C. with 5% CO2. Cells were seeded into 6-well cell culture plates one day before transfection. After overnight incubation, one well of cell was transiently transfected with 3.4 μg of human GLP-1R or empty vector, respectively, using lipofectamine 2000. After 4 hours of transfection, transfection medium was replaced by RPMI medium supplemented with 5% (v/v) fetal bovine serum and 2% (v/v) penicillin/streptomycin. After 24 hours of incubation, cells were trypsinized and seeded into 96 well cell culture plates (5.5× 10^4 cells per well) and maintained at 37° C. in 5% CO2 incubator for 24 hours. The cells were starved using RPMI with 0.5% sera. After 24 hours of starvation, the transfected cells were treated with compounds as indicated.
(§1) Compounds dissolved in 100% DMSO were diluted to indicated concentration in RPMI 1640 (0.5% DMSO included for all cell culture). After 4 hours of treatment, cells were harvested by cold luciferase cell culture lysis buffer and kept on shaker for 10 min at 4° C. Luciferase activity was measured using luciferin substrate and luminescence was read by Wallac 1420 multiplate reader. Luciferase activity of HEK293 reporting cells cultured using 0.5% DMSO and full RPMI medium was used as a vehicle control. Protein concentration of each well was determined by Bradford assay.
The concentration-dependent dose response curve was generated using Graph Pad Prism 6.0 for Mac (GraphPad Software Inc., San Diego, CA). The curves were fitted based on sigmoidal dose response with the bottom parameter being kept 0. The EC50 value was calculated from Prism. The statistical difference between different groups was analyzed by 2-way ANOVA module in Prism.

[1] = Compound stability (statement); type: physicochemical
[2] = biological target: T2, Vasoactive Intestinal Polypeptide Receptor 1 (VIPR1) (Homo sapiens, UniProt P32241); assay: Non-specific effect on VIPR1, luciferase assay in HEK293 cells overexpressing VIPR1; type: cell-based; details: Ib 23.5 μM; VIPR peptide agonist 0.014 nM-145 nM
T2 construct: host or cells: HEK293 cells stably expressing CRE/CREB luciferase reporter
T2 sequence (P32241 31-457): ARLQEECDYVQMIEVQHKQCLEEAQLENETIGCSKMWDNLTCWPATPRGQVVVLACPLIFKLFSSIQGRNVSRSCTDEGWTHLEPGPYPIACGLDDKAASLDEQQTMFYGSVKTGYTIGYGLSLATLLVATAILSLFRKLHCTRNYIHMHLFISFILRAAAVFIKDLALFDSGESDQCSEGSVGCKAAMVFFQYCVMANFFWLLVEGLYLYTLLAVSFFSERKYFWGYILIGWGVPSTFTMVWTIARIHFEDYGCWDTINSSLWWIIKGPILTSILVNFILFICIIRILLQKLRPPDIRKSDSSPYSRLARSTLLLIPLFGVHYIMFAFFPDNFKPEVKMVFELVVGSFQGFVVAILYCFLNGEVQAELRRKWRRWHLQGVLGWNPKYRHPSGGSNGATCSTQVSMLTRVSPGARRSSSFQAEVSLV
Procedure: as §1
HEK293 cells stably expressing CRE/CREB Reporter (luciferase) were cultured in RPMI 1640 supplemented with 8% (v/v) fetal bovine serum, 2% (v/v) penicillin/streptomycin, and 100 μg/ml of Hygromycin B. Cells were maintained at 37° C. with 5% CO2. Cells were seeded into 6-well cell culture plates one day before transfection. After overnight incubation, cells were transiently transfected with 3.4 μg of VIPR1, using Lipofectamine 2000. After 4 hours of transfection, medium was replaced by RPMI supplemented with 5% (v/v) fetal bovine serum. After 24 hours of incubation, cells were trypsinized and seeded into 96 well cell culture plates (5.5×10^4 cells per well) and maintained at 37° C. in 5% CO2 for 24 hours. After 24 hours of incubation, the cells were starved with RPMI with 0.5% sera. […]

INS-1 832/13 cells = assay: Glucose stimulated insulin production in INS-1 832/13 cells; type: cell-based, rat; details: 16.7 mM glucose
Procedure: INS-1 832/13 cells were cultured in RPMI 1640 supplemented with 2 mM L-glutamine, 1 mM sodium pyruvate, 10% FBS, 10 mM HEPES, 100 units/ml penicillin, 100 μg/ml streptomycin, and 50 μM β-mercaptoethanol. Cells were maintained in an incubator at 37° C. with 5% CO2. To determine the effect of GLP-1R agonist Ia and PAM Ib on insulin production, INS-1 cells were seeded onto 24 well plates. After 48 hours of incubation, cells were washed twice with 200 μl of Krebs-Ringer Bicarbonate (KRB) buffer and starved for 2 hours in fresh KRB supplemented with 0.1% serum. […] After 20 minutes, the supernatant was collected, centrifuged at 1000 rpm for 5 min at 4° C., and aliquoted and stored at −20° C. These samples were used to determine insulin concentration using insulin detection kit ELISA following the manual.

T1 sequence (P43220 24-463): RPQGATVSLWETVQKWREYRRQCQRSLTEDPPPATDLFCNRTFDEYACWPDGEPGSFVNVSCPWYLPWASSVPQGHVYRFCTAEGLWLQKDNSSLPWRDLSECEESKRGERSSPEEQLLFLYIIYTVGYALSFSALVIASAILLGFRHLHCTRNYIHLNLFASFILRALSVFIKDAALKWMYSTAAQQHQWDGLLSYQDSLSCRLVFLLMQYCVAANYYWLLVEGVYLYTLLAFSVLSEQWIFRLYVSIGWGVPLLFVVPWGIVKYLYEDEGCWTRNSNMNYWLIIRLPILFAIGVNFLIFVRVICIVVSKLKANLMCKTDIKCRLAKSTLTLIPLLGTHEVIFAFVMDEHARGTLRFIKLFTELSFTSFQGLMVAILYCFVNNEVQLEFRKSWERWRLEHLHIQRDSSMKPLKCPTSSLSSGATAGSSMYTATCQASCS

- GLP-1R activity stimulated by GLP-1 in combination with compound vs GLP-1 alone (human GLP-1R; Ic 71 μM): significantly increased
- potency as PAM (statement) (human GLP-1R; compared with Ib): less potent
- stability (statement) [1]: unstable
Molecule: CC1CCCc2c1sc1nc(S)n(N)c(=O)c21 (centres unmarked) [Compound Ic, 3-amino-2-mercapto-8-methyl-5,6,7,8-tetrahydrobenzo[4,5]thieno[2,3-d]pyrimidin-4(3H)-one]

- GLP-1R activity stimulated by GLP-1 in combination with compound vs GLP-1 alone (human GLP-1R; Ib 23.5 μM): significantly increased
Molecule: CCOC(=O)c1c(N)sc2c1CCCC2C (centres unmarked) [Compound Ib, ethyl 2-amino-7-methyl-4,5,6,7-tetrahydrobenzo[b]thiophene-3-carboxylate]
- non-specific activity on VIPR1 (VIPR1 activity with VIPR agonist in combination with Ib vs agonist alone) [2]: did not induce non-specific activity; also recorded: no potential non-specific activity on VIPR1
- insulin secretion, Ib in combination with GLP-1 vs GLP-1 alone (INS-1 832/13 cells; Ib 11.75 μM + GLP-1 0.18 μM): more than 2.5 fold
- amount of insulin produced by Ib compared with vehicle control (INS-1 832/13 cells; Ib 11.75 μM alone): no significant difference

Molecule: GLP-1: GLP-1R peptide agonist (Sigma #9416), endogenous ligand of GLP-1R (HAEGTFTSDVSSYLEGQAAKEFIAWLVKGR; ends and bridges not checked; UniProt P01275 98-127, looked up) [reference compound]
- insulin production compared to vehicle control (INS-1 832/13 cells; GLP-1 0.18 μM, both time points): more than two-fold
